Experimental data as given in patent US7759345B2, “Antitumoral derivatives of ET-743” (priority 2001, dated 2010).
Read-outs that look alike come from different tables or passages of the source.

Tests used:
[1] = system: MEL-28; test: Inhibition of cell growth by counting cells, MEL-28; type: cell-based, human; details: read-out: IC50 (molar) MEL-28
Procedure, shortened: (§1)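 1×10^4 cells/well, EMEM 5% FCS + test sample at several concs, duplicates; 3 d, 37° C, 5% CO2, humidified. Trypsinize, Coulter count; % growth vs untreated wells; IC50 from dose-response curve.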

[2] = system: HT-29; test: Inhibition of cell growth by counting cells, HT-29; type: cell-based, human; details: read-out: IC50 (molar) HT-29
Procedure, shortened: as §1

[3] = system: A-549; test: Inhibition of cell growth by counting cells, A-549; type: cell-based, human; details: read-out: IC50 (molar) A-549
Procedure, shortened: as §1

[4] = system: P-388; test: Inhibition of cell growth by counting cells, P-388; type: cell-based, mouse; details: read-out: IC50 (molar) P-388
Procedure, shortened: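 IC50 is the sample concentration halving growth, taken from dose-response curves of cell counts (Coulter counter, duplicate wells) relative to drug-free cultures. P-388 (DBA/2 mouse lymphoid neoplasm) cells plated at 1×10^4 per well in EMEM with 5% FCS plus test sample.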

[5] = system: DU-145; test: Inhibition of cell growth by counting cells, DU-145; type: cell-based, human; details: read-out: IC50 (molar) DU-145
Protocol: 1°.—Inhibition of Cell Growth by Counting Cells.
This form of the assay employs 24 well multidishes of 16 mm diameter (Bergeron, 1984; Schroeder, 1981). The tumor cell lines employed are: P-388 (ATCC CCL 46), suspension culture of a lymphoid neoplasm from a DBA/2 mouse; A-549 (ATCC CCL 185), monolayer culture of a human lung carcinoma; HT-29 (ATCC HTB-38), monolayer culture of a human colon carcinoma; MEL-28 (ATCC HTB-72), monolayer culture of a human melanoma and DU-145 (ATCC HTB-81), monolayer culture of a human prostate carcinoma.
Cells were maintained, in logarithmic phase of growth in Eagle's Minimum Essential Medium, with Earle's Balanced Salts, with non-essential amino acids, with 2.0 mM L-Glutamine, without sodium bicarbonate (EMEM/neaa), supplemented with 10% Fetal Calf Serum (FCS), 10^−2 M. sodium bicarbonate and 0.1 U/l penicillin G+0.1 g/l streptomycin sulfate. For the experiments, cells are harvested from subconfluent cultures using trypsin and resuspended in fresh medium before plating.
A-549, HT-29, MEL-28 and DU-145 cells were seeded into 16 mm diameter wells at 1×10^4 cells per well in 1 ml aliquots of EMEM 5% FCS containing different concentrations of the sample to be tested. A separate set of cultures without drug was seeded as control of growth, to ensure that cells remained in exponential phase of growth. All determinations are carrying out in duplicate. After three days of incubation at 37° C., 5% CO2 in a 98% humid atmosphere cells were stained with 0.1% crystal violet. An approximately IC50 was determined by comparing the growth in wells with drug to the growth in wells control.
For quantifying the activity, after the incubation time, cells are trypsinized and counted in a Coulter Counter ZM. All counts (net cells per well), represent the average of duplicate wells. % G, percent of growth relative to cultures without drug. The results of these assays are used to generate dose-response curves from which more precise IC50 values are determined (sample concentration which produces 50% cell growth inhibition).
Obtained results may predict the usefulness of a certain drug as a potential cancer treatment. For this technique, compounds which show IC50 values smaller than 1 μg/ml are selected to continue with further studies. IC50's data allow to predict that not only could a drug be cystostatic, but also it could have a potential in terms of tumor reduction.

[6] = Homo sapiens, SK-MEL-28, 72 h, three days of incubation
[7] = Homo sapiens, HT-29, 72 h, three days of incubation
[8] = Homo sapiens, A549, 72 h, three days of incubation
[9] = Mus musculus, P388, 72 h, three days of incubation
[10] = Homo sapiens, DU-145, 72 h, three days of incubation

| SMILES | IC50 [1, 6] [nM] | IC50 [2, 7] [nM] | IC50 [3, 8] [nM] | IC50 [4, 9] [nM] | IC50 [5, 10] [nM] | IC50 ([5]; Homo sapiens, DU-145, 72 h) [nM] | other results |
| --- | --- | --- | --- | --- | --- | --- | --- |
| C=CCOC(=O)NC(CSCC1c2ccccc2-c2ccccc21)C(=O)Oc1cc2c(cc1OC)[C@@]1(CS[C@@H]3c4c(OC(C)=O)c(C)c5c(c4[C@H](COC1=O)N1C3[C@H]3c4c(cc(C)c(OC)c4O)C[C@@H]([C@@H]1C#N)N3C)OCO5)NCC2 (stereo partly shown) [Compound 18] | 0.441 | 0.441 | 0.441 | 0.441 | 0.441 | – | – |
| COc1cc2c(cc1OC(=O)CCCCC1SCC3NC(=O)NC31)CCNC21CSC2c3c(OC(C)=O)c(C)c4c(c3C(COC1=O)N1C(C#N)C3Cc5cc(C)c(OC)c(O)c5C(C21)N3C)OCO4 (stereo not shown) [Compound 19] | – | – | – | – | – | – | IC50 ([1]; three days of incubation): 0.502 nM; IC50 ([2]; three days of incubation): 0.502 nM; IC50 ([3]; three days of incubation): 0.502 nM; IC50 ([4]; three days of incubation): 0.502 nM; IC50 ([5]; three days of incubation): 0.502 nM |
| COc1cc2c(cc1OC(=O)CCCCC1SCC3NC(=O)NC31)CCNC21CSC2c3c(OC(C)=O)c(C)c4c(c3C(COC1=O)N1C(C#N)C3Cc5cc(C)c(OC)c(OC(=O)CCCCC6SCC7NC(=O)NC76)c5C(C21)N3C)OCO4 (stereo not shown) [Compound 20] | – | – | – | – | – | – | IC50 ([1]; three days of incubation): 8.18 nM; IC50 ([2]; three days of incubation): 8.18 nM; IC50 ([3]; three days of incubation): 8.18 nM; IC50 ([4]; three days of incubation): 8.18 nM; IC50 ([5]; three days of incubation): 8.18 nM |
| COc1cc2c(cc1OC(=O)OCc1ccccc1)CCN[C@]21CS[C@@H]2c3c(OC(C)=O)c(C)c4c(c3[C@H](COC1=O)N1C2[C@H]2c3c(cc(C)c(OC)c3O)C[C@@H]([C@@H]1C#N)N2C)OCO4 (stereo partly shown) [Compound 27] | 0.111 | 0.111 | 0.111 | 0.111 | 0.111 | – | – |
| COc1cc2c(cc1OC(=O)OCc1ccccc1)CCN[C@]21CS[C@@H]2c3c(OC(C)=O)c(C)c4c(c3[C@H](COC1=O)N1C2[C@H]2c3c(cc(C)c(OC)c3OC(=O)OCc3ccccc3)C[C@@H]([C@@H]1C#N)N2C)OCO4 (stereo partly shown) [Compound 28] | 9.62 | 9.62 | 9.62 | 9.62 | 9.62 | – | – |
| CCOc1cc2c(cc1OC)[C@@]1(CS[C@@H]3c4c(OC(C)=O)c(C)c5c(c4[C@H](COC1=O)N1C3[C@H]3c4c(cc(C)c(OC)c4OCC)C[C@@H]([C@@H]1C#N)N3C)OCO5)NCC2 (stereo partly shown) [Compound 38] | 12.1 | 12.1 | 12.1 | 12.1 | – | 12.1 | – |
| CCCOc1cc2c(cc1OC)[C@@]1(CS[C@@H]3c4c(OC(C)=O)c(C)c5c(c4[C@H](COC1=O)N1C3[C@H]3c4c(cc(C)c(OC)c4OCCC)C[C@@H]([C@@H]1C#N)N3C)OCO5)NCC2 (stereo partly shown) [Compound 40] | 1170 | 1170 | 1170 | 1170 | – | 1170 | – |
| C=CCOc1cc2c(cc1OC)[C@@]1(CS[C@@H]3c4c(OC(C)=O)c(C)c5c(c4[C@H](COC1=O)N1C3[C@H]3c4c(cc(C)c(OC)c4O)C[C@@H]([C@@H]1C#N)N3C)OCO5)NCC2 (stereo partly shown) [Compound 41] | 1.23 | 1.23 | 1.23 | 1.23 | – | 1.23 | – |
| C=CCOc1cc2c(cc1OC)[C@@]1(CS[C@@H]3c4c(OC(C)=O)c(C)c5c(c4[C@H](COC1=O)N1C3[C@H]3c4c(cc(C)c(OC)c4OCC=C)C[C@@H]([C@@H]1C#N)N3C)OCO5)NCC2 (stereo partly shown) [Compound 42] | 11.8 | 11.8 | 11.8 | 11.8 | – | 11.8 | – |
| COc1cc2c(cc1OCc1ccccc1)CCN[C@]21CS[C@@H]2c3c(OC(C)=O)c(C)c4c(c3[C@H](COC1=O)N1C2[C@H]2c3c(cc(C)c(OC)c3O)C[C@@H]([C@@H]1C#N)N2C)OCO4 (stereo partly shown) [Compound 43] | – | – | – | – | – | 1.16 | IC50 ([1]; Homo sapiens, SK-MEL-28, 72 h): 1.16 nM; IC50 ([2]; Homo sapiens, HT-29, 72 h): 1.16 nM; IC50 ([3]; Homo sapiens, A549, 72 h): 1.16 nM; IC50 ([4]; Mus musculus, P388, 72 h): 1.16 nM |
| COc1cc2c(cc1OCc1ccccc1)CCN[C@]21CS[C@@H]2c3c(OC(C)=O)c(C)c4c(c3[C@H](COC1=O)N1C2[C@H]2c3c(cc(C)c(OC)c3OCc3ccccc3)C[C@@H]([C@@H]1C#N)N2C)OCO4 (stereo partly shown) [Compound 44] | – | – | – | – | – | 105 | IC50 ([1]; Homo sapiens, SK-MEL-28, 72 h): 105 nM; IC50 ([2]; Homo sapiens, HT-29, 72 h): 105 nM; IC50 ([3]; Homo sapiens, A549, 72 h): 105 nM; IC50 ([4]; Mus musculus, P388, 72 h): 105 nM |
| COc1cc2c(cc1O)CCN[C@]21CS[C@@H]2c3c(OC(C)=O)c(C)c4c(c3[C@H](COC1=O)N1C2[C@H]2c3c(cc(C)c(OC)c3OC(=O)OC(C)(C)C)C[C@@H]([C@@H]1C#N)N2C)OCO4 (stereo partly shown) [Compound 47] | 1.15 | 1.15 | 1.15 | 1.15 | 1.15 | – | – |
| COc1cc2c(cc1OC(=O)/C=C/c1ccccc1)CCN[C@]21CS[C@@H]2c3c(OC(C)=O)c(C)c4c(c3[C@H](COC1=O)N1C2[C@H]2c3c(cc(C)c(OC)c3OC(=O)OC(C)(C)C)C[C@@H]([C@@H]1C#N)N2C)OCO4 (stereo partly shown) [Compound 49] | 0.999 | 0.999 | 0.999 | 0.999 | – | 0.999 | – |
| C=CCOc1cc2c(cc1OC)[C@@]1(CS[C@@H]3c4c(O)c(C)c5c(c4[C@H](COC1=O)N1C3[C@H]3c4c(cc(C)c(OC)c4OCC=C)C[C@@H]([C@@H]1C#N)N3C)OCO5)NCC2 (stereo partly shown) [Compound 50] | 124 | 124 | 124 | 124 | 124 | – | – |
| CCCC(=O)Oc1cc2c(cc1OC)[C@@]1(CS[C@@H]3c4c(OC(C)=O)c(C)c5c(c4[C@H](COC1=O)N1C3[C@H]3c4c(cc(C)c(OC)c4O)C[C@@H]([C@@H]1O)N3C)OCO5)NCC2 (stereo partly shown) [Compound 58] | 0.12 | 0.12 | 0.12 | 0.12 | 0.12 | – | – |
| CCCCCCCCCCCCCCCC(=O)Oc1cc2c(cc1OC)[C@@]1(CS[C@@H]3c4c(OC(C)=O)c(C)c5c(c4[C@H](COC1=O)N1C3[C@H]3c4c(cc(C)c(OC)c4O)C[C@@H]([C@@H]1O)N3C)OCO5)NCC2 (stereo partly shown) [Compound 60] | 5 | 5 | 5 | 10 | 5 | – | – |
| C=CCOC(=O)NC(CSCC1c2ccccc2-c2ccccc21)C(=O)Oc1cc2c(cc1OC)[C@@]1(CS[C@@H]3c4c(OC(C)=O)c(C)c5c(c4[C@H](COC1=O)N1C3[C@H]3c4c(cc(C)c(OC)c4O)C[C@@H]([C@@H]1O)N3C)OCO5)NCC2 (stereo partly shown) [Compound 62] | 0.888 | 0.888 | 0.888 | 0.888 | 0.888 | – | – |
